Consider three molecules from PubChem BioAssay (NCI).

Among the test systems are MCF7 breast; SK-MEL-28 melanoma; SNB-19 CNS; ACHN renal; SK-MEL-2 melanoma; OVCAR-8 ovarian; NCI-H460 lung; SW-620 colon; SF-268 CNS; NCI-H522 lung.
Holding throughout (experiment): NCI anticancer screen, dose series, 48 h

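Five compound concentrations were applied to cells in 96-well plates for 48 hours; endpoints were derived by simple linear interpolation of the resulting dose-response curve. GI50 marks 50% less growth. TGI: total growth inhibition.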

Turning to `COC(=O)C1=C(C)NC(C)=C(C(=O)OC)C1/C=C(Cl)/C=C/c1ccccc1`, the GI50 with MCF7 breast was 24.4 µM; in the assay on SK-MEL-28 melanoma, 17.1 µM; in the assay on SNB-19 CNS, 37.7 µM; in the assay with ACHN renal, 24.6 µM; in the assay with SK-MEL-2 melanoma, 13.4 µM; in the assay with OVCAR-8 ovarian, 36 µM. Moreover, the GI50 was 18.6 µM with NCI-H460 lung, 37.3 µM in the assay on SW-620 colon, 20.9 µM in the assay with SF-268 CNS and 21.7 µM in the assay with NCI-H522 lung. In addition, the TGI is 78.5 µM with MCF7 breast; 35 µM in the assay on SK-MEL-28 melanoma; more than 100 µM in the assay on SNB-19 CNS; 76 µM with ACHN renal; 50.4 µM with SK-MEL-2 melanoma; more than 100 µM with OVCAR-8 ovarian. Besides, the TGI is 45.4 µM with NCI-H460 lung, more than 100 µM in the assay with SW-620 colon, 58.8 µM in the assay on SF-268 CNS and 72 µM in the assay on NCI-H522 lung.

Regarding `COC(=O)CCCC(=O)O`, the TGI with MCF7 breast, in the assay with SK-MEL-28 melanoma, in the assay with SNB-19 CNS, in the assay on ACHN renal, with SK-MEL-2 melanoma and with OVCAR-8 ovarian was more than 100 µM each time. Moreover, the TGI with NCI-H460 lung, with SW-620 colon, in the assay on SF-268 CNS and in the assay with NCI-H522 lung was more than 100 µM in each case.

Consider `C=C1CC/C=C(\C)C(=O)C[C@@H]2[C@@H]1CC2(C)C`, for which the TGI amounted to 5.94 µM in the assay on MCF7 breast; 6.34 µM with SK-MEL-28 melanoma; 25.7 µM in the assay with SNB-19 CNS; 8.67 µM in the assay on ACHN renal; 43.8 µM in the assay with SK-MEL-2 melanoma; 29.7 µM in the assay on OVCAR-8 ovarian. The TGI is 12 µM in the assay with NCI-H460 lung, 11.5 µM in the assay on SW-620 colon, 52.7 µM in the assay on SF-268 CNS and 2.96 µM in the assay with NCI-H522 lung.
